Experimental data from patent publication US5739131A, “Benzene derivatives and pharmaceutical composition” (Kureha Chemical Industry Co., Ltd., priority 1994, dated 1998).

Tests used:
[1] = biological target: T1, angiotensin II receptor subtype 1 (AT1) (Oryctolagus cuniculus, UniProt P34976); experiment: Binding assay, angiotensin II receptor subtype 1 (AT1); design: species or system rabbit (adrenal glands); conditions: for inhibition at 100 µM: AT1, rabbit adrenal glands; for IC50: tracer 3H angiotensin II, room temperature 3 hours, read-out: IC50 AT1
T1 construct: receptor: from adrenal glands in rabbits; from tissue; host or cells: rabbit adrenal glands
T1 sequence (P34976 1-359): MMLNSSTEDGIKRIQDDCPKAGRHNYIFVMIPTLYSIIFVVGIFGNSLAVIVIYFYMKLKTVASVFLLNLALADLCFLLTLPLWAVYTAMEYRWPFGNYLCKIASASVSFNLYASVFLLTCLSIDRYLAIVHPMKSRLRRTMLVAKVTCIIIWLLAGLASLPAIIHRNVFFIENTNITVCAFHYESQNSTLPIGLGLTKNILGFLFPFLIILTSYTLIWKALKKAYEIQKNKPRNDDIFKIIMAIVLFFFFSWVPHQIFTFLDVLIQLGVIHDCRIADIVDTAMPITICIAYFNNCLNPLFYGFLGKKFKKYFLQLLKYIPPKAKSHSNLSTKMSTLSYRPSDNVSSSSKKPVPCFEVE
Protocol: (§1) In this Example, the affinity to the angiotensin II receptor subtype 1 or subtype 2 was evaluated by a binding assay in accordance with the method described in Biochem. Pharmacol., 33, 4057-4062 (1984).
(§2) Specifically, the measurement of the total binding in the presence of each drug was performed as follows:
(§3) A mixture (final volume=0.25 ml) of a drug in a given concentration (the drug was dissolved in DMSO, and diluted to a double volume with a buffer attached to a drug discovery system to prepare sample for the assay; 0.025 ml), a tracer (0.025 ml), and receptors (0.2 ml) was incubated [in the case of the angiotensin II receptor subtype 1 (AT1), at room temperature for 3 hours, and in the case of the subtype 2 (AT2), at 37° C. for 1 hour]. Then, the reaction mixture was filtered with suction (GF/C filter was used in AT1, and GF/B filter was used in AT2). The filter papers after filtration with suction (the tracer bound to the receptors) were counted by a γ-well counter (ARC-500, Aloka). The non-specific bindings were measured by repeating the above method, except that a large excess amount of a displacer was added. The specific binding of the drug in the given concentration was calculated by subtracting the non-specific binding from the total binding, respectively.
(§4) In AT1 and AT2, the percentages to inhibit the bindings of radioactive ligands (tracer) to receptors by the drugs to be tested (IC50 value of concentration to show 50% inhibition, or binding inhibition % in 100 μM) were measured, using the drugs to be tested and control drugs in the given concentration.

[2] = system: kidney disease model rats; experiment: Action to depress blood pressure (tail cuff method); type: in vivo, Sprague-Dawley female rats; conditions: systolic, average, 20 mg/kg per os, two days from administration; control (water) 203
Protocol: The compounds of the present invention and the reference substance were forcedly administered per os to kidney disease model rats, and the action to depress blood pressure was observed. The kidney disease model rats were prepared by ligature of branches of renal artery in accordance with the conventional method, that is, the left hilum renalis of Sprague-Dawley female rats was exposed under anesthesia, and one of four secondary branches of renal artery was left unligated, while the remaining three branches were ligated, respectively. After a week, the hilum renalis (artery, vein, and ureter) of the right kidney were further ligated to thereby prepare the rats whose renal function was lowered to approximately 1/8 of the normal function. Each group consisted of eight rats. The drugs to be tested (20 mg/kg) were administered to each administering group, and only water was administered to control group. After two days from the administration, the systolic blood pressure was measured by the tail cuff method using a blood pressure measuring apparatus (UR5000; Ueda).

mice = experiment: Acute toxicity, single oral dose; type: in vivo
Protocol: Five-week-old ICR female mice (5 mice per group) were bred for acclimation for a week. Then, the compounds of the present invention were dissolved or dispersed in an aqueous solution of 0.5% methylcellulose, and orally administered to the mice in a single dosage (500 mg/kg).

[3] = system: kidney disease model rats; experiment: Renal function indicatory value (action to kidney diseases); type: in vivo, Sprague-Dawley female rats; conditions: 20 mg/kg/day per os, two weeks; for Creatinine clearance: 24 hours urine, control 0.20; for Creatinine / Urea nitrogen: serum; for Creatinine: control 2.0; for Urea nitrogen: control 100
Protocol: The kidney disease model rats were prepared as in Example 115. Twenty-five groups (8 rats per group) were sleeked in a manner so that there were no major differences between each group in the serum creatinine value and the urea nitrogen value indicating renal function. The rats in each group were allowed to freely take up feed and water. […] To the rats in the control group, only water was forcedly administered per os every day. After two weeks, 0.2 ml of blood was collected from the carotid artery of the rat under anesthesia, and centrifuged to obtain serum. Using 25 μl of the serum, serum creatinine (Scr) was measured by a creatinine analytical instrument (Beckman). Using 10 μl of the serum, urea nitrogen (BUN) was measured by a BUN analytical instrument (Beckman). Creatinine clearance was evaluated as follows:
After serum creatinine measurement, rats were placed in urinary metabolic cages for 24 hours to collect urine. Urinary creatine concentration (Ucr) was measured by a creatinine analytical instrument, and total volume of urination (Uvol) was also measured. Creatinine clearance (CCr) was calculated by the following formula: [formula]

[4] = system: kidney disease model rats; experiment: Action to survival time of kidney diseased animals; type: in vivo, Sprague-Dawley female rats; conditions: 20 mg/kg/day per os, observation eight weeks (upper limit); control 5.0
Protocol: The kidney disease model rats were prepared as in Example 115. Twenty-five groups (8 rats per group) were prepared in a manner so that there was no major difference between the groups in the serum creatinine value and the urea nitrogen value indicating renal function. The rats in each group were allowed to freely take up feed and water. […] To the rats in the control group, only water was forcedly administered per os every day. If kidney diseases are aggravated, the rat will die of uremia. Thus, the survival time was observed as comprehensive indication of the improvement effect on the kidney diseases. The observation period was eight weeks. Thus if all rats survived, the average survival time is eight weeks and it is an upper limit.

[5] = biological target: T2, angiotensin II receptor subtype 2 (AT2) (Bos taurus, UniProt G5E6F7); experiment: Binding assay, angiotensin II receptor subtype 2 (AT2); design: species or system bovine (cerebellar cortex); conditions: 100 μM, AT2, bovine cerebellar cortex, 37° C. 1 hour; read-out: Binding inhibition % in 100 μm, AT2
T2 construct: receptor: from cerebellar cortex in bovine; from tissue; host or cells: bovine cerebellar cortex
T2 sequence (G5E6F7 1-362): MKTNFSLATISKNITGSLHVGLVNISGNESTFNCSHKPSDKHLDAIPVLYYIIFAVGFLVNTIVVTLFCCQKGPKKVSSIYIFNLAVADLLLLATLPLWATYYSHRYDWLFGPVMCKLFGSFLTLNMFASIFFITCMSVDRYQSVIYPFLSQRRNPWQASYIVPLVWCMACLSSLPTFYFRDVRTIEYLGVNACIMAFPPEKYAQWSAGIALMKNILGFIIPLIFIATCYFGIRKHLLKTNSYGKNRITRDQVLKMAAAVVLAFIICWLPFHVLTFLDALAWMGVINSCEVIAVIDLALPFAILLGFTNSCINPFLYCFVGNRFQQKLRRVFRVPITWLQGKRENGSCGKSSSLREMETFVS
Protocol: as §1, §2, §3, §4
receptor: from cerebellar cortex in bovine
tracer: ^125 ITyr^4angiotensin II
control drug: angiotensin II (human)
(displacer): angiotensin II (human)

SMILES | inhibition at 100 µM [1] | Blood pressure [2] | Number of deaths/number of survivals (mice; mouse, in vivo, po, 500 mg/kg) | Creatinine clearance [3] | Creatinine [3] | Urea nitrogen [3] | Average survival time [4] | inhibition at 100 µM [5] | IC50 [1] | Number of deaths/number of survivals (mice; mice, single oral 500 mg/kg, observed for 6 days, 5 per group)
CCCCCN(Cc1ccc(C(=O)O)cc1)c1cccc(C(=O)N2CCOCC2)c1 [Compound No. 158, 3-[N-(4-carboxyphenyl)methyl]-n-amylaminobenzoic acid morpholide] | 18% | 190 mmHg | 0/5 | 0.37 mL/min | 1.7 mg/dL | 74 mg/dL | 7.2 weeks | 0% | – | –
CCCCC(=O)Nc1ccc(C(=O)N2CCOCC2)cc1OCc1ccc(-c2ccccc2-c2nnn[nH]2)cc1 [Compound No. 587, 3-[[2'-(1H-tetrazol-5-yl)biphenyl-4-yl]methyloxy]-4-valeramidobenzoic acid morpholide] | – | 201 mmHg | – | 0.34 mL/min | 1.7 mg/dL | 77 mg/dL | 7.0 weeks | 0% | 7.9 µM | 0/5
CCCCC(=O)N(Cc1ccc(-c2ccccc2-c2nn[nH]n2)cc1)c1cc(C(=O)N2CCOCC2)ccc1N(C)C [Compound No. 591, 4-dimethylamino-3-N-[2'-[(1H-tetrazol-5-yl)biphenyl-4-yl]methyl]valeramidobenzoic acid morpholide] | 35% | 199 mmHg | 0/5 | – | 1.6 mg/dL | 76 mg/dL | 7.3 weeks | 0% | – | –
CCCNC(=O)N(Cc1ccc(C(=O)O)cc1)c1cc(C(=O)N2CCOCC2)ccc1N(C)C [Compound No. 225] | 4% | 195 mmHg | 0/5 | 0.25 mL/min | 1.8 mg/dL | 73 mg/dL | 7.0 weeks | 0% | – | –
CCCCC(=O)N(Cc1ccc(C(=O)O)cc1)c1cc(C(=O)N2CCOCC2)ccn1 [Compound No. 467, 2-N-[[(4-carboxyphenyl)methyl]valeramido]isonicotinic acid morpholide] | 16% | 200 mmHg | 0/5 | 0.25 mL/min | 1.8 mg/dL | 74 mg/dL | 7.0 weeks | 0% | – | –
CCCCCN(Cc1ccc(C(=O)O)cc1)c1cc(C(=O)N2CCOCC2)ccn1 [Compound No. 535, 2-[N-n-amyl-N-(4-carboxyphenyl)methyl]aminoisonicotinic acid morpholide] | – | 195 mmHg | 0/5 | 0.38 mL/min | 1.5 mg/dL | 72 mg/dL | 7.6 weeks | 0% | 3.8 µM | –
CCCCC(=O)N(Cc1ccc(-c2ccccc2-c2nn[nH]n2)cc1)c1cc(C(=O)N2CCOCC2)ccc1NC(C)=O [Compound No. 592, 4-acetamido-3-N-[[[2'-(1H-tetrazol-5-yl)biphenyl-4-yl]methyl]valeramido]benzoic acid morpholide] | – | 202 mmHg | 0/5 | 0.33 mL/min | 1.7 mg/dL | 76 mg/dL | 7.0 weeks | 0% | 4.9 µM | –
CCCCC(=O)N(Cc1ccc(C(=O)O)cc1)c1cc(C(=O)N2CCOCC2)ccc1C [Compound No. 278, 4-methyl-3-N-[[4-(carboxyphenyl)methyl]valeramido]benzoic acid morpholide] | 4% | 198 mmHg | 0/5 | 0.36 mL/min | 1.8 mg/dL | 73 mg/dL | 7.0 weeks | 0% | – | –
CCCCC(=O)N(Cc1ccc(C(=O)O)cc1)c1cccc(C(=O)N2CCOCC2)c1 [Compound No. 90, 3-[N-(4-carboxyphenyl)methyl]valeramidobenzoic acid morpholide] | 30% | 194 mmHg | 0/5 | 0.38 mL/min | 1.5 mg/dL | 70 mg/dL | 7.6 weeks | 0% | – | –
CCCCCN(C)c1ccc(S(=O)(=O)N2CCOCC2)cc1NCc1ccc(C(=O)O)cc1 [Compound No. 596, 4-[[4-(N-n-amyl-N-methyl)amino-3-[(4-carboxyphenyl)methyl]aminobenzene]sulfonyl]morpholine] | 22% | 198 mmHg | 0/5 | 0.34 mL/min | 1.6 mg/dL | 78 mg/dL | 6.0 weeks | 0% | – | –
